Positions of bridges follow the written chain, without caps; N, C: chain ends. Non-standard residues stand in square brackets, D forms with d. Residues, ends and D or L forms follow the SMILES beside them. *: point of attachment. X1 = CC[C@H](C)CCCCC(=O)*; Dab = NCC[C@H](N)C(=O)O

The text below walks through data of article PMC7289991, “Population Pharmacokinetics and Limited Sampling Strategy for Therapeutic Drug Monitoring of Polymyxin B in Chinese Patients With Multidrug-Resistant Gram-Negative Bacterial Infections” (Frontiers in Pharmacology, 2020).

The conditions of data set [1]: cited from earlier work. From the text:
To date, few studies have been conducted on population PK of polymyxin B ([Kwa et al., 2008]; [Sandri et al., 2013]; [Kubin et al., 2018]; [Manchandani et al., 2018]; [Miglis et al., 2018]). To our best knowledge, this study included the largest samples and most covariates from acutely-ill patients, aimed at evaluating the population PK of polymyxin B and identifying potential factors influencing the PK variability. The result indicated a two-compartment model adequately described population PK of polymyxin B in Chinese patients. Although there were studies performed using the one-compartment ... || The impact of clinical variables on population PK models of polymyxin B was always inconsistent, especially the influence of body weight and CrCL on polymyxin B clearance. […] With a low correlation coefficient (Supplementary Figure 1), this study found CrCL was a statistical covariate of polymyxin B clearance (Equ. 6), which was in agr ...

Data set [2] can be described thus: Observed AUC0-12h at steady state (linear-up-log-down method). The note with it: human, 46 patients, steady state (day 4), intravenous, plasma, LC-MS/MS, mean ± spread. The format is in vivo. On the procedure:
(§1) Blood samples were obtained after 3 days of therapy. On day 4, one blood sample (2 ml, C0h) was collected immediately at pre-dose, and five to seven blood samples (mainly C0.5h, C1h, C1.5h, C2h, C4h, C6h, and C8h) were collected at pre-next dose into EDTA tubes for each patient. To calculate AUC0–12h, C0h was regarded as C12h for those who hid not obtained C0h. All samples were centrifuged at 3,500×g for 10 min. The supernatant was collected and stored at −80°C until analysis.
Plasma concentrations of polymyxin B were determined using liquid chromatography-tandem mass spectrometry (LC-MS/MS) in the hospital laboratory. The method was previously described by our group ([Wang et al., 2020]). […] The upper limit of quantification was extended to 20 µg/ml for polymyxin B1 and 5.0 µg/ml for polymyxin B2 after four-fold dilution. For precision and accuracy, the intra- and inter-day imprecision of polymyxin B1 and B2 was less than 13.93%, and the inaccuracy ranged from −10.87 to 11.13%. […]
The AUC0-12h of polymyxin B was calculated by the linear-up-log-down method. […] The observed and predicted AUC0-12h were analyzed using the Pearson correlation coefficient (r). […] The determination coefficient (r^2) evaluated the regression level of the equation. […]

A short description of data set [3]: Population pharmacokinetic analysis of polymyxin B in Chinese patients (two-compartment model, Phoenix NLME). The format is in vivo, human. On the procedure:
Patients who were ≥ 18 years of age, received intravenous polymyxin B (sulfate; polymyxin B injection, Shanghai First Biochemical Pharmaceutical Co., Ltd., China) for ≥ 72 hours, and were documented MDR Gram-negative bacterial infections were included. Patients with renal replacement therapy were excluded. Demographic characteristics (age, sex, and body weight), polymyxin B therapy, and laboratory data before polymyxin B TDM were collected from electronic medical records, including alanine aminotransferase (ALT), aspartate aminotransferase (AST), glutamyl transpeptidase (GGT), alkaline phosphatase (ALP), urea nitrogen, serum creatinine (Scr), serum uric acid, serum proteins, serum albumin, total bilirubin (TBIL), direct bilirubin (DBIL), and creatinine clearance (CrCL). CrCL was calculated using the Cockcroft-Gault equation with body weight ([Janmahasatian et al., 2005]).
According to the Chinese package insert, the maintenance dose of polymyxin B was 50 to 100 million units ([…]) twice daily. The loading dose was 100 to 150 million units in clinical practice. The recommended infusion time was one hour but could be lengthened as needed. Polymyxin B treatment including dose, infusion time, and duration of therapy depended on the medical teams.
as §1
Plasma concentrations of polymyxin B were determined using liquid chromatography-tandem mass spectrometry (LC-MS/MS) in the hospital laboratory. The method was previously described by our group ([Wang et al., 2020]). […] The upper limit of quantification was extended to 20 µg/ml for polymyxin B1 and 5.0 µg/ml for polymyxin B2 after four-fold dilution. For precision and accuracy, the intra- and inter-day imprecision of polymyxin B1 and B2 was less than 13.93%, and the inaccuracy ranged from −10.87 to 11.13%. Since polymyxin B1 and B2 had similar structures, molecular weight, pharmacological activities, and pharmacokinetic characteristics, the plasma concentration of polymyxin B was summed to derive the total polymyxin B1 and B2 concentrations ([Tam et al., 2011]; [Manchandani et al., 2016a]).
Based on a previously published study ([Avedissian et al., 2019]), the PK parameters were determined by one- and two-compartmental models performed using Phoenix® NLME software (v7.0, Pharsight, Mountain View, CA, USA). Initial PK parameters were estimated by the Naive-pooled model. PK models were estimated by the first-order conditional
where Pi is the PK parameters of the i^th patient, θ is the population PK pharmacokinetic parameters, and ηi is a normally distributed random variable with a mean of 0 and a variance of ω^2. Intra-individual variability (residual error) is described using additive (Cobs = Cpred + ϵ), proportional [Cobs = Cpred × (1+ ϵ)] or mixed (additive + proportional) models, where Cobs and Cpred are the observed and predicted concentrations, and ϵ is an error variable with a mean of 0 and a variance of σ^2. Model assessment criteria included precision of parameter estimates (standard error), goodness-of-fit plots, and likelihood ratio test (−2LL). For the one-compartment model, basic PK parameters were the volume of central compartment distribution (V) and central compartment clearance (Cl). For the two-compartment model, there were two additional parameters as the volume of peripheral compartment distribution (V2) and inter-compartmental clearance (Q). […]

[4] abbreviates: two-compartment population PK, 46 patients, intravenous, steady state.

Regarding `CC[C@H](C)CCCCC(=O)N[C@@H](CCN)C(=O)N[C@H](C(=O)N[C@@H](CCN)C(=O)N[C@H]1CCNC(=O)[C@H]([C@@H](C)O)NC(=O)[C@H](CCN)NC(=O)[C@H](CCN)NC(=O)[C@H](CC(C)C)NC(=O)[C@@H](Cc2ccccc2)NC(=O)[C@H](CCN)NC1=O)[C@@H](C)O` [polymyxin B, Polymyxin B] (X1-[Dab]T[Dab][Dab][Dab][dF]L[Dab][Dab]T; lactam 4-C), the “clearance value, renal insufficient group” value in data set [1] (CrCL < 80 ml/min, P = 0.06 vs normal function group, ref Thamlikitkul et al. (2017)) is 2.0 L/h. Also, the “clearance value, normal function group” value in data set [1] (CrCL ≥ 80 ml/min, ref Thamlikitkul et al. (2017)) is 2.5 L/h. Also, the “polymyxin B CL reported previously (range)” value in data set [1] (earlier population PK studies, ref not given) is 1.87 to 2.5 L/h. Moreover, the V estimate in data set [1] (ref Sandri et al. (2013)) is reported as 6.35 L. The AUC(0-t) (as a rule, the area under the concentration-time curve up to a stated or last time point) in data set [2] came to 43600 ± 27700 ng·h/mL. In data set [3] (1,000 bootstrap samples), the “dCldCrCL, bootstrap median” value worked out at 0.357; the “tvCl, bootstrap median” value worked out at 1.771 L/h; the “tvQ, bootstrap median” value amounted to 14.427 L/h; the “tvV2, bootstrap median” value is reported as 12.073 L. The “tvV, bootstrap median” value in data set [3] (1,000 bootstrap samples) is 5.960 L. The “tvV, typical value of volume of central compartment distribution (V), final model estimate” value in data set [3] (two-compartment population PK, 46 adult patients, 331 plasma samples, intravenous, steady state (day 4), LC-MS/MS, sum of polymyxin B1 and B2) is 6.218 L. Moreover, in data set [3] (setting [4]), the “tvQ, typical value of inter-compartmental clearance (Q, Cl2), final model estimate” value was 13.518 L/h and the “tvV2, typical value of volume of peripheral compartment distribution (V2), final model estimate” value is listed as 11.922 L.
